From patent US9399663B2, “Competitive inhibitor of GP120” (priority 2014, dated 2016)
Values joined by “and” are separate entries in the source; they are usually repeats but may differ in a detail not shown here. Identical values can stand only once. “Also recorded” adds a separate entry of the source. Like-named read-outs stand apart in the source and are kept apart here. Residues, ends and D or L forms follow the SMILES beside them.

Legend:
rat cortical neurons = assay: Penetration of neuronal membranes (confocal microscopy, transmission electron microscopy); assay type: cell-based; conditions: 5 μM, 24 hours, FITC-labeled; listed as Helix-A peptide
Procedure: FTIR spectra of Helix-A nano. The gray line highlights the Amide region typical of peptide components. c. […] Representative images obtained by transmission electron microscopy showing unmodified MSN and Helix-A nano in intact and open lysosomes, respectively. Bar=500 nm.
Primary cortical neurons: Cortical neuronal cultures were prepared from the cortex of embryonic (E17-18) Sprague Dawley rats (Charles River, Mass.). Cells were seeded onto poly-L-lysine pre-coated plates in Neurobasal Medium containing 2% B27 supplement, […] glutamate, 0.5 mM L-glutamine, and 1% antibiotic-antimycotic solution (INVITROGEN®, Carlsbad, Calif.). Cultures were grown at 37° C. in 5% CO2/95% air for 7 days. Cultures contained ˜5% of non-neuronal cells. […]
Immunocytochemistry of primary neurons: Primary cortical neurons were maintained on glass coverslips for 7 days and fixed in 4% paraformaldehyde/phosphate buffer with 4% sucrose for 20 minutes at room temperature (RT). […] Coverslips were washed with PBS-T and correspondent fluorescence-conjugated secondary antibody (1:2000; INVITROGEN®, CA) were applied for 1 hour at RT. […] Image scale was calibrated and length of MAP-2 positive processes was measured in 10 neurons per field using ImageJ.

gp120IIIB = gp120IIIB (Human immunodeficiency virus type 1 group M subtype B, UniProt P04578); conditions: dot blot, 2 μg peptide spotted, 5 μg gp120IIIB
Procedure: Dot blot analysis: CTTs or Helix-A and -B peptides (2 μg each) were spotted on a nitrocellulose membrane and allowed to dry. The membrane was then incubated in blocking buffer (5% BSA in TBST [[…] NaCl, 20 mM Tris-base, pH 7.5, 0.05% TWEEN® 20]) for 2 hours followed by incubation with a solution composed of 5 μg recombinant gp120 (for binding to CTTs) or 5 μg recombinant TUBB3 (for Helix-A and -B) in 20 mL of TBST for 2 hours. The membranes were washed and then incubated with a mouse anti-gp120 antibody (1:1000; Immunodiagnostics, Inc.) or mouse anti-TUBB3 antibody (1:5000; Covance, N.J.) in TBST for 2 hours. Membranes were washed and incubated in goat anti-mouse HP-conjugated secondary antibody (1:20,000; Jackson ImmunoResearch Laboratories, Inc., PA). Visualization of the bands was then accomplished by the addition of PIERCE® SUPERSIGNAL™ West Pico-Stable Peroxidase Solution and Luminol/Enhancer Solution (Pierce Biotechnology, Inc., Rockford, Ill.).
Several CTTs (see Table 1) synthesized by […]® were used. Peptides (2 μg each) were spotted on a nitrocellulose membrane and incubated with a solution composed of 5 μg of gp120IIIB (Immunodiagnostics) in 20 mL of TBS-TWEEN® 2 hours at RT, followed by incubation with a specific primary antibody (Immunodiagnostics, +4° C., ON). Following incubation with a corresponding HRP-conjugated secondary antibody 1 hour at RT, the immunocomplexes were visualized with chemiluminescence.

recombinant TUBB3 = biological target: T1, recombinant TUBB3 (Homo sapiens, UniProt Q13509); assay: SPR (BIACORE T200) binding to immobilized TUBB3; conditions: for SPR response (2-1) RU, Fc2: Tubulin β-3 1092 RU: 60 sec injection; for Kd: Ligand: TUBB3
T1 construct: purchased MyBioSource, San Diego, Calif
Procedure: (§1) Surface plasmon resonance (SPR). BIACORE® T200™ was used to determine the kinetic parameters for the binding of recombinant TUBB3, tubulin dimer, and assembled microtubules (ligands) to the various isoforms of gp120 or related peptides (analytes). Recombinant TUBB3, tubulin dimer, and assembled MTs were covalently attached to different flow cells of a carboxymethyldextran (CM5) sensor chip by amine coupling. The chip surface was activated for 720 sec at 10 μL/min with of 1:1 mixture of 0.1 M N-Hydroxysuccinimide (NHS) and 0.5 M 1-Ethyl-3-(-3-dimethylaminopropyl)-carbodiimide hydrochloride (EDC). […] After ligand capture, the surfaces were deactivated by injecting 1 M ethanolamine for 720 sec at 10 μL/min. HBS-P (10 mM HEPES, pH7.4, 150 mM NaCl, 0.05% P-20) with 2 mM MgCl2 used as the running buffer. Flow cell 1 on each chip was left empty and used for reference surface. […] Kinetic studies were performed by injecting different concentrations of the analytes in triplicate. The chip surface was regenerated by with 10 mM glycine pH 1.5 injected for 30 sec at a flow rate of 100 μL/min. Each sample was injected for 60 sec (contact time) followed by a dissociation time of 300 sec at a flow rate of 100 μL/min. Data was analyzed with BIACORE® T200™ Evaluation Software (version 1) to determine the equilibrium dissociation constant (KD) from a 1:1 binding model. Binding studies with peptides Helix A and Helix B were done in the same way as described above. Kinetic studies were performed by injecting different concentrations (20 μM, 10 μM, 5 μM, 2.5 μM, 1.25 μM and 0.625 μM) of Helix A and Helix B. Competition experiments with Helix A and Helix B were performed by mixing 100 nM gp120 isoforms with 10 μM of each peptide and injecting over the sensorchip surface.
(§2) Recombinant TUBB3, tubulin dimer, and assembled MTs from bovine brains were immobilized on a BIACORE® CM5 chip by amine coupling. Different concentrations of gp120s (from 3.13 to 100 nM) were injected over the surface in triplicates in each experiment. The kinetics of interaction was analyzed using a BIACORE® T200™ instrument. BiaEvaluation software was used to calculate binding affinities based on 1:1 binding model.

tubulin dimer = assay: SPR (BIACORE T200) binding to immobilized tubulin dimer; design: species or system Porcine; conditions: 1 uM peptide alone; 60 sec injection
Procedure: as §1
as §2, with “BiaEvaluation software was used to calculate binding affinities based on 1:1 binding model.” left out

[1] = tested on: gp120 binding to microtubules; assay: SPR competition: gp120 premixed with Helix peptide injected over microtubules; design: species or system Porcine; conditions: 60 sec injection
From the text: (§3) BIACORE® T200™ was used to determine the kinetic parameters for the binding of recombinant TUBB3, tubulin dimer, and assembled MTs to gp120s in the absence and presence of Helix-A peptide. […] Representative data are from one of three independent experiments.
(§4) Surface plasmon resonance (SPR). BIACORE® T200™ was used to determine the kinetic parameters for the binding of recombinant TUBB3, tubulin dimer, and assembled microtubules (ligands) to the various isoforms of gp120 or related peptides (analytes). Recombinant TUBB3, tubulin dimer, and assembled MTs were covalently attached to different flow cells of a carboxymethyldextran (CM5) sensor chip by amine coupling. The chip surface was activated for 720 sec at 10 μL/min with of 1:1 mixture of 0.1 M N-Hydroxysuccinimide (NHS) and 0.5 M 1-Ethyl-3-(-3-dimethylaminopropyl)-carbodiimide hydrochloride (EDC). […] After ligand capture, the surfaces were deactivated by injecting 1 M ethanolamine for 720 sec at 10 μL/min. HBS-P (10 mM HEPES, pH7.4, 150 mM NaCl, 0.05% P-20) with 2 mM MgCl2 used as the running buffer. Flow cell 1 on each chip was left empty and used for reference surface. TUBB3 (1040 RU), tubulin dimer (2086 RU), and assembled MTs (990 RU) were captured on the remaining 3 flow cells. […] Data was analyzed with BIACORE® T200™ Evaluation Software (version 1) to determine the equilibrium dissociation constant (KD) from a 1:1 binding model. […]

[2] = tested on: gp120 binding to tubulin dimer; assay: SPR competition: gp120 premixed with Helix peptide injected over tubulin dimer; design: species or system Porcine; conditions: 60 sec injection
Procedure: BIACORE® T200™ was used to determine the kinetic parameters for the binding of recombinant TUBB3, tubulin dimer, and assembled MTs to gp120s in the absence and presence of Helix-A peptide. Gp120s (100 nM) were injected over the surface alone or as a premix with Helix-A peptides (10 μM). Representative data are from one of three independent experiments.
as §4, with “surface.” for “surface. TUBB3 (1040 RU), tubulin dimer (2086 RU), and assembled MTs (990 RU) were captured on the remaining 3 flow cells.”

assembled MTs = assay: SPR (BIACORE T200) binding to immobilized assembled microtubules; design: species or system Porcine; conditions: 1 uM peptide alone; 60 sec injection
Procedure: Surface plasmon resonance (SPR). BIACORE® T200™ was used to determine the kinetic parameters for the binding of recombinant TUBB3, tubulin dimer, and assembled microtubules (ligands) to the various isoforms of gp120 or related peptides (analytes). Recombinant TUBB3, tubulin dimer, and assembled MTs were covalently attached to different flow cells of a carboxymethyldextran (CM5) sensor chip by amine coupling. The chip surface was activated for 720 sec at 10 μL/min with of 1:1 mixture of 0.1 M N-Hydroxysuccinimide (NHS) and 0.5 M 1-Ethyl-3-(-3-dimethylaminopropyl)-carbodiimide hydrochloride (EDC). […] After ligand capture, the surfaces were deactivated by injecting 1 M ethanolamine for 720 sec at 10 μL/min. HBS-P (10 mM HEPES, pH7.4, 150 mM NaCl, 0.05% P-20) with 2 mM MgCl2 used as the running buffer. Flow cell 1 on each chip was left empty and used for reference surface. TUBB3 (1040 RU), tubulin dimer (2086 RU), and assembled MTs (990 RU) were captured on the remaining 3 flow cells. Kinetic studies were performed by injecting different concentrations of the analytes in triplicate. The chip surface was regenerated by with 10 mM glycine pH 1.5 injected for 30 sec at a flow rate of 100 μL/min. Each sample was injected for 60 sec (contact time) followed by a dissociation time of 300 sec at a flow rate of 100 μL/min. Data was analyzed with BIACORE® T200™ Evaluation Software (version 1) to determine the equilibrium dissociation constant (KD) from a 1:1 binding model. Binding studies with peptides Helix A and Helix B were done in the same way as described above. Kinetic studies were performed by injecting different concentrations (20 μM, 10 μM, 5 μM, 2.5 μM, 1.25 μM and 0.625 μM) of Helix A and Helix B. Competition experiments with Helix A and Helix B were performed by mixing 100 nM gp120 isoforms with 10 μM of each peptide and injecting over the sensorchip surface.
Recombinant TUBB3, tubulin dimer, and assembled MTs from bovine brains were immobilized on a BIACORE® CM5 chip by amine coupling. […] The kinetics of interaction was analyzed using a BIACORE® T200™ instrument. […]

[3] = biological target: T2, gp120 binding to Tubulin β-3 (Homo sapiens, UniProt Q13509); assay: SPR competition: gp120 premixed with Helix peptide injected over TUBB3; conditions: 60 sec injection
T2 construct: purchased MyBioSource (TUBB3); Immunodiagnostics Inc, Woburn, Mass; (gp120s)
From the text: as §3, §4

[4] = 100 nM GP120IIIB + 1 uM peptide
[5] = 100 nM GP120IIIB + 10 uM peptide

T1 sequence (Q13509 whole entry): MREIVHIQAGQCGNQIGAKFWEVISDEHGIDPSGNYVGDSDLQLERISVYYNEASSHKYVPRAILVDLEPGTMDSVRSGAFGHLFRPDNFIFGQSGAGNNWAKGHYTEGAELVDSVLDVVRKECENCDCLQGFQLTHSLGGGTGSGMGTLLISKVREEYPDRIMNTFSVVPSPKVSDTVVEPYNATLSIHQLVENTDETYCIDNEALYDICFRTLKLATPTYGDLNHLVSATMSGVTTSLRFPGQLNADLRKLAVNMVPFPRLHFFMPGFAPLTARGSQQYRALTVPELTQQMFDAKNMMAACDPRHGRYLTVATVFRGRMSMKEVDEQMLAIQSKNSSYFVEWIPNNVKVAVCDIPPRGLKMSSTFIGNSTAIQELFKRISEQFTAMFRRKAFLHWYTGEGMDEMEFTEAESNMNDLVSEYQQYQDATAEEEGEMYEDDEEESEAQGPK
T2 sequence (Q13509 whole entry): as above

CC[C@H](C)[C@H](NC(=O)[C@H](CC(=O)O)NC(=O)[C@H](CCC(=O)O)NC(=O)[C@H](Cc1c[nH]cn1)NC(=O)[C@H](CCSC)NC(=O)[C@H](CCC(N)=O)NC(=O)[C@H](CCC(=O)O)NC(=O)[C@@H](NC(=O)[C@H](CCSC)NC(=O)[C@H](CC(=O)O)NC(=O)[C@@H](N)CC(N)=O)C(C)C)C(=O)N[C@H](C(=O)N[C@@H](CO)C(=O)N[C@@H](CC(C)C)C(=O)N[C@@H](Cc1c[nH]c2ccccc12)C(=O)N[C@@H](CC(=O)O)C(=O)N[C@@H](CCC(N)=O)C(=O)N[C@@H](CO)C(=O)N[C@@H](CC(C)C)C(=O)N[C@@H](CCCCN)C(=O)O)[C@@H](C)CC [Helix A] (H-NDMVEQMHEDIISLWDQSLK-OH; N-terminus and C-terminus assumed)
penetration of neuronal cell membrane (rat cortical neurons): could not penetrate; also recorded: not cell-membrane-penetrable

EDDEEESEA [SEQ ID NO: 13]
Binding to gp120 (gp120IIIB; listed as tubulin β-3 (TUBB3)): potential binding partners

EGEGEEEGE [SEQ ID NO: 5]
Binding to gp120 (gp120IIIB): YES | Binding to gp120 (gp120IIIB; listed as tubulin-α1A/1B Δ2): potential binding partners

RAKWNNTLKQIASK (listed as Homo sapiens) [Helix B]
SPR response (2-1) RU, Fc2: Tubulin β-3 1092 RU (recombinant TUBB3; 10 uM peptide alone): 1.1 RU and 1.2 RU | SPR response (3-1) RU, Fc3: Tubulin Dimer 1900 RU (tubulin dimer): 0.4 RU and 0.5 RU | SPR response (4-1) RU, Fc4: Microtubules 970 RU [1, 4]: 16.5 RU | SPR response (4-1) RU, Fc4: Microtubules 970 RU [1, 5]: 19 RU and 20 RU | SPR response (3-1) RU, Fc3: Tubulin Dimer 1900 RU [2, 4]: 18.5 RU | SPR response (3-1) RU, Fc3: Tubulin Dimer 1900 RU [2, 5]: 20 RU and 18 RU | SPR response (4-1) RU, Fc4: Microtubules 970 RU (assembled MTs): N/B | SPR response (2-1) RU, Fc2: Tubulin β-3 1092 RU [3, 4]: 33 RU | SPR response (2-1) RU, Fc2: Tubulin β-3 1092 RU [3, 5]: 34 RU and 32 RU

gp120MN: HIV envelope protein gp120, strain MN, purchased from Immunodiagnostics
SPR response (2-1) RU, Fc2: Tubulin β-3 1092 RU (recombinant TUBB3; 100 nM gp120 alone): 9 RU and 8.8 RU | Kd (recombinant TUBB3; mean of two independent experiments, read-out: Mean KD): 740 nM | Kd (recombinant TUBB3; single experiment, gp120 3.13 to 100 nM, 1:1 binding model, read-out: KD): 579 nM and 901 nM
